# Patent publication US20210369583A1, “COMPOSITIONS FOR PROVIDING SKIN CARE BENEFITS AND METHODS OF USE” (Danisco US Inc., priority 2018, published 2021)
# Several values for one entry are separate records, joined by “and”; a condition that tells them apart may be missing. Identical values can stand only once.
# Legend:
# Assay type in all cases: cell-based
# [1] = system: Normal Human Epidermal Keratinocytes (NHEK); experiment: Protection of keratinocytes under UV-irradiated conditions (UVB 250 mJ/cm2), flow cytometry
# Description: (§1) The type of cells use for this study were Normal Human Epidermal Keratinocytes (NHEK), Bioalternatives reference K341 used at the 3rd passage. The culture conditions were: 37° C., 5% CO2. The culture medium is referred to as “keratinocyte-SFM” supplemented with Epidermal Growth Factor (EGF) 0.25 ng/ml, Pituitary extract (PE) 25 μg/ml, Gentamycin 25 μg/ml. The assay medium was “keratinocyte-SFM” supplemented with gentamycin 25 μg/ml.
# (§2) Keratinocytes (NHEK) were seeded in 24-well plates and cultured for 24 hours in culture medium. The medium was then replaced by assay medium containing or not (control) the single osmolyte or the combination of osmolytes C1 or C2 and cells were pre-incubated for 24 hours.
# For UV-irradiated conditions, the medium was then removed and replaced by assay medium and the cells were irradiated with UVB at 250 mJ/cm2 (+UVA at 1.6 J/cm2). The lamp used was a SOL500 Sun simulator equipped with an H2 filter (Dr. Hole, AG). A non-irradiated control condition was performed in parallel. After irradiation, the medium was removed and replaced by assay medium containing or not (control) the single osmolyte or the combination of osmolytes (C1 or C2) and the cells were incubated for 48 hours.
# (§3) At the end of incubation, culture medium was removed and the cells were rinsed with a PBS solution. The cells were then detached using trypsin treatment and transferred into tubes. After several washes in PBS/BSA 0.2%, the cells were labeled with a propidium iodide (PI) solution (staining of dead cells).
# (§4) Cell populations were then analyzed for number (total number of event per well during a fixed time), size (FSC), granularity (SSC) and viability parameters (% PI-positive cells, equivalent to % dead cells) by flow cytometry using BD FACSVerse™ flow cytometer. • Acquisition 1 represents the number of events (=number of cells) passing one by one in front of the cytometer laser over a fixed time. It doesn't distinct dead or living cells at this step. By subtracting the number of events (in hyperosmotic or irradiated condition) from the total number of events in normoosmotic conditions, it is possible to calculate the number of cells that have been lysed due to the stress conditions. • Acquisition 2, represents, on a fixed number of events, 1) the detection of the light scattered when the cells are crossing the laser, FSC-A, from which can be calculated the cell size, 2) the detection of the cells stained by Propidium Iodide (dead cells) from which can be calculated the % of viable cells.
# [2] = system: Normal Human Epidermal Keratinocytes (NHEK); experiment: Osmoprotective effect on keratinocytes under hyper-osmotic conditions (NaCl 150 mM), flow cytometry
# Description: as §1, §2
# For hyper-osmotic conditions, the medium was removed and replaced by assay medium containing NaCl at 150 mM and containing the single osmolyte or the combination of osmolytes (C1 or C2). The cells were then incubated for 48 hours. In parallel, a normo-osmotic control (no osmotic stress control) was performed.
# as §3, §4
# [3] = system: Normal Human Epidermal Keratinocytes (NHEK); experiment: Protection of keratinocytes under UV-irradiated and hyper-osmotic conditions, flow cytometry; settings: NaCl 150 mM + UVB 250 mj/cm^2
# Description: as §1, §2
# For UV-irradiated and hyper-osmotic conditions, the medium was then removed and replaced by assay medium and the cells were irradiated with UVB at 250 mJ/cm2 (+UVA at 1.6 J/cm2). The lamp used was a SOL500 Sun simulator equipped with an H2 filter (Dr. Höle, AG). After irradiation, the medium was removed and replaced by assay medium containing NaCl at 150 mM (hyperosmotic conditions) and containing the single osmolyte or the combination of osmolytes (C1 or C2) and the cells were then incubated for 48 hours. In parallel, a non-irradiated and normo-osmotic control was performed.
# as §3, §4
# [4] = system: Reconstructed Human Epidermis (RHE); experiment: Caffein diffusion test on Reconstituted Human Epidermis (RHE); settings: for caffein diffusion through RHE: systemic treatment
# Description: By measuring the amount of […] […] The epidermis used was a Reconstructed Human Epidermis, called “RHE”, 0-day-old, batch no 01015-444, placed in culture conditions 37° C., 5% CO2. The assay medium was the Bioalternatives maintenance medium. RHE at Day 0 (when placed at the air/liquid interface) were placed in assay medium containing or not (control) the compounds, the combination or the reference (vitamin C at 200 μg/ml). This is referred to as a systemic application, to be differentiated from a topical application. RHE were then incubated for 7 days with treatment renewal at Day 3 and Day 5. All experimental conditions were performed in n=3. At the end of incubation (Day 7), radioactive […] ([^14[…] applied on the surface of each epidermis. The radioactivity contained in subnatants was measured by liquid scintillation after 30 minutes, 1, 2, 3, 4, 5, 6, 7 and 8 hours of incubation. The barrier function is calculated according to the below formula:
smiles,measurement,setting,value
O=C(O)[C@@H]1CCCN1 [L-Proline],viability at 3000 µg/mL,"[1]; Homo sapiens, NHEK, light or radiation study, UVB 250 mj/cm^2, 3 mg/ml, read-out: Cell viability, % hyperosmotic control",103%
same,effect on cells submitted to UVB irradiation,[1]; UVB 250 mJ/cm^2 alone or in combination with hyperosmotic stress,no clear effect
same,"Cell size, % hyperosmotic control","[1]; UVB 250 mj/cm^2, 3 mg/ml",110%
same,Mean % viable cells = 100-% PI-positive cells = 100-% dead cells,"[1]; UVB 250 mj/cm^2, 3 mg/ml",86.4%
same,Mean cell size FSC-A (au),"[1]; UVB 250 mj/cm^2, 3 mg/ml",100519 au
same,"Cell size, % hyperosmotic control","[1]; UVB 250 mj/cm^2, 10 mg/ml",110%
same,Mean cell size FSC-A (au),"[1]; UVB 250 mj/cm^2, 10 mg/ml",101243 au
same,% cell size difference compared to control hyperosmotic stress condition under 150 mM NaCl,[2]; 3 mg/ml total osmolytes,+4%
same,% cell size difference compared to control hyperosmotic stress condition under 150 mM NaCl,[2]; 10 mg/ml total osmolytes,+13%
same,viability at 3000 µg/mL,"[2]; Homo sapiens, NHEK, NaCl 150 mM 48 h, 3 mg/ml, read-out: Cell viability, % hyperosmotic control",143%
same,"Lysed cells, % normo-osmotic control (% cell lysis)","[2]; NaCl 150 mM 48 h, 3 mg/ml",67.2%
same,Lysed cells: Mean number of event per well normo-osmotic control − Mean number of event per well hyperosmotic conditions,"[2]; NaCl 150 mM 48 h, 3 mg/ml",73197
same,Mean % viable cells = 100-% PI-positive cells = 100-% dead cells,"[2]; NaCl 150 mM 48 h, 3 mg/ml",69.6%
same,Mean cell size FSC-A (au),"[2]; NaCl 150 mM 48 h, 3 mg/ml",68417 au
same,"Total number of events per well, % hyperosmotic control","[2]; NaCl 150 mM 48 h, 3 mg/ml",130%
same,"Total number of events per well, Mean (au)","[2]; NaCl 150 mM 48 h, 3 mg/ml",18676 au
same,"Cell size, % hyperosmotic control","[2]; NaCl 150 mM 48 h, 10 mg/ml",113%
same,"Lysed cells, % normo-osmotic control (% cell lysis)","[2]; NaCl 150 mM 48 h, 10 mg/ml",41.7% and 67.2%
same,Lysed cells: Mean number of event per well normo-osmotic control − Mean number of event per well hyperosmotic conditions,"[2]; NaCl 150 mM 48 h, 10 mg/ml",56995
same,Mean cell size FSC-A (au),"[2]; NaCl 150 mM 48 h, 10 mg/ml",74581 au
same,"Total number of events per well, % hyperosmotic control","[2]; NaCl 150 mM 48 h, 10 mg/ml",243%
same,"Total number of events per well, Mean (au)","[2]; NaCl 150 mM 48 h, 10 mg/ml",34878 au
same,"Cell size, % hyperosmotic control",[3]; 3 mg/ml,102%
same,Mean cell size FSC-A (au),[3]; 3 mg/ml,69601 au
same,"Cell size, % hyperosmotic control",[3]; 10 mg/ml,100%
same,Mean cell size FSC-A (au),[3]; 10 mg/ml,68169 au
same,Barrier function % Control,"[4]; 0.5 hrs, 3 mg/ml",96%
same,Mean [14C]-caffein (cpm),"[4]; 0.5 hrs, 3 mg/ml",20720 cpm
same,[14C]-caffein % Control,"[4]; 0.5 hrs, 3 mg/ml",105%
same,Barrier function % Control,"[4]; 0.5 hrs, 10 mg/ml",98%
same,Mean [14C]-caffein (cpm),"[4]; 0.5 hrs, 10 mg/ml",20193 cpm
same,[14C]-caffein % Control,"[4]; 0.5 hrs, 10 mg/ml",103%
same,Barrier function % Control,"[4]; 1 hrs, 3 mg/ml",97%
same,Mean [14C]-caffein (cpm),"[4]; 1 hrs, 3 mg/ml",47352 cpm
same,[14C]-caffein % Control,"[4]; 1 hrs, 3 mg/ml",104%
same,Barrier function % Control,"[4]; 1 hrs, 10 mg/ml",100%
same,Mean [14C]-caffein (cpm),"[4]; 1 hrs, 10 mg/ml",45495 cpm
same,[14C]-caffein % Control,"[4]; 1 hrs, 10 mg/ml",100%
same,Barrier function % Control,"[4]; 2 hrs, 3 mg/ml",94%
same,Mean [14C]-caffein (cpm),"[4]; 2 hrs, 3 mg/ml",106026 cpm
same,[14C]-caffein % Control,"[4]; 2 hrs, 3 mg/ml",106%
same,Barrier function % Control,"[4]; 2 hrs, 10 mg/ml",98%
same,Mean [14C]-caffein (cpm),"[4]; 2 hrs, 10 mg/ml",102027 cpm
same,[14C]-caffein % Control,"[4]; 2 hrs, 10 mg/ml",102%
same,Barrier function % Control,"[4]; 3 hrs, 3 mg/ml",93%
same,Mean [14C]-caffein (cpm),"[4]; 3 hrs, 3 mg/ml",147545 cpm
same,[14C]-caffein % Control,"[4]; 3 hrs, 3 mg/ml",108%
same,Barrier function % Control,"[4]; 3 hrs, 10 mg/ml",98%
same,Mean [14C]-caffein (cpm),"[4]; 3 hrs, 10 mg/ml",140203 cpm
same,[14C]-caffein % Control,"[4]; 3 hrs, 10 mg/ml",102%
same,Barrier function % Control,"[4]; 4 hrs, 3 mg/ml",93%
same,Mean [14C]-caffein (cpm),"[4]; 4 hrs, 3 mg/ml",169001 cpm
same,[14C]-caffein % Control,"[4]; 4 hrs, 3 mg/ml",107%
same,Barrier function % Control,"[4]; 4 hrs, 10 mg/ml",97%
same,Mean [14C]-caffein (cpm),"[4]; 4 hrs, 10 mg/ml",162571 cpm
same,[14C]-caffein % Control,"[4]; 4 hrs, 10 mg/ml",103%
same,Barrier function % Control,"[4]; 5 hrs, 3 mg/ml",93%
same,Mean [14C]-caffein (cpm),"[4]; 5 hrs, 3 mg/ml",184911 cpm
same,[14C]-caffein % Control,"[4]; 5 hrs, 3 mg/ml",107%
same,Barrier function % Control,"[4]; 5 hrs, 10 mg/ml",98%
same,Mean [14C]-caffein (cpm),"[4]; 5 hrs, 10 mg/ml",176461 cpm
same,[14C]-caffein % Control,"[4]; 5 hrs, 10 mg/ml",102%
same,Barrier function % Control,"[4]; 6 hrs, 3 mg/ml",94%
same,Mean [14C]-caffein (cpm),"[4]; 6 hrs, 3 mg/ml",190819 cpm
same,[14C]-caffein % Control,"[4]; 6 hrs, 3 mg/ml",106%
same,Barrier function % Control,"[4]; 6 hrs, 10 mg/ml",99%
same,Mean [14C]-caffein (cpm),"[4]; 6 hrs, 10 mg/ml",181674 cpm
same,[14C]-caffein % Control,"[4]; 6 hrs, 10 mg/ml",101%
same,Barrier function % Control,"[4]; 7 hrs, 3 mg/ml",94%
same,Mean [14C]-caffein (cpm),"[4]; 7 hrs, 3 mg/ml",199859 cpm
same,[14C]-caffein % Control,"[4]; 7 hrs, 3 mg/ml",106%
same,Barrier function % Control,"[4]; 7 hrs, 10 mg/ml",99%
same,Mean [14C]-caffein (cpm),"[4]; 7 hrs, 10 mg/ml",190843 cpm
same,[14C]-caffein % Control,"[4]; 7 hrs, 10 mg/ml",101%
same,Barrier function % Control,"[4]; 8 hrs, 3 mg/ml",100% and 99%
same,Barrier function (% L-Proline 3 mg/ml),"[4]; 8 hrs, 3 mg/ml",104%
same,Barrier function (% L-Proline 10 mg/ml),"[4]; 8 hrs, 3 mg/ml",100%
same,Mean [14C]-caffein (cpm),"[4]; 8 hrs, 3 mg/ml",193655 cpm and 194941 cpm
same,[14C]-caffein % Control,"[4]; 8 hrs, 3 mg/ml",100% and 101%
same,Barrier function % Control,"[4]; 8 hrs, 10 mg/ml",95%
same,Mean [14C]-caffein (cpm),"[4]; 8 hrs, 10 mg/ml",203011 cpm
same,[14C]-caffein % Control,"[4]; 8 hrs, 10 mg/ml",105%
same,caffein diffusion through RHE,[4]; 3 mg/ml,did not decrease caffein diffusion
same,caffein diffusion through RHE,[4]; 10 mg/ml,did not decrease caffein diffusion
